# System: Radical scavenging activity
# Assay: Antioxidant activity assessed as DPPH radical scavenging activity
# Assay type: functional
row,SMILES,ED50
1,COc1ccc(C2COc3cc(O)cc(O)c3C2)cc1 (stereo not given),26 µM
2,COc1cc(O)c(C(=O)C(C)c2ccc(O)cc2)cc1O (stereo not given),45 µM
3,O=c1c(-c2ccccc2)coc2cc(O)c(O)cc12,44 µM
4,COc1cc2c(cc1O)CC(c1ccc(OC)c(OC)c1)CO2 (stereo not given),56 µM
5,Cc1c(O)cc2c(c1C)OCC(c1ccccc1)C2 (stereo not given),81 µM
6,O=c1c(-c2ccccc2)coc2c(O)c(O)ccc12,29 µM
7,COc1cc(CC(=O)c2ccc(OC)c(O)c2O)ccc1O,28 µM
8,Cc1c(O)cc(C(=O)Cc2ccc(O)c(O)c2)c(O)c1C,18 µM
9,COc1cc2occ(-c3ccc(O)c(O)c3)c(=O)c2cc1O,36 µM
10,COc1cc(CC(=O)c2cc(O)c(C)cc2O)ccc1O,22 µM
11,COc1cc(CC(=O)c2cc(OC)c(OC)cc2O)ccc1O,84 µM
12,COc1ccc(CC(=O)c2ccc(OC)c(O)c2O)cc1,44 µM
13,COc1cc(O)c(C(=O)C(C)c2ccccc2)cc1O (stereo not given),48 µM
14,Oc1ccc(C2COc3cc(O)cc(O)c3C2)cc1 (stereo not given),32 µM
15,COc1ccc(CC(=O)c2cc(O)c(C)c(C)c2O)cc1,93 µM
16,COc1cc(CC(=O)c2cc(O)c(OC)cc2O)ccc1O,26 µM
17,COc1cc2c(cc1OC)OCC(c1ccc(O)c(O)c1)C2 (stereo not given),69 µM
18,COc1cc(CC(=O)c2cc(OC)c(O)cc2O)ccc1O,129 µM
19,COc1cc2c(cc1O)OCC(c1ccc(O)cc1)C2 (stereo not given),26 µM
20,CC(C(=O)c1ccc(O)c(O)c1O)c1ccc(O)cc1 (stereo not given),18 µM
21,COc1ccc(C2COc3c(ccc(OC)c3O)C2)cc1 (stereo not given),224 µM
22,Cc1cc(O)c(C(=O)Cc2ccc(O)c(O)c2)cc1O,20 µM

row,SMILES,ED50
1,COc1ccc(C2COc3cc(OC)c(O)cc3C2)cc1 (stereo not given),60 µM
2,COc1ccc2c(=O)c(-c3ccc(O)c(O)c3)coc2c1O,53 µM
3,COc1cc(O)c(C(=O)Cc2ccccc2)cc1O,51 µM
4,COc1ccc(C2COc3cc(O)c(OC)cc3C2)cc1 (stereo not given),26 µM
5,Cc1ccc2c(=O)c(-c3ccc(O)c(O)c3)coc2c1O,46 µM
6,O=c1c(-c2ccc(O)c(O)c2)coc2cc(O)ccc12,30 µM
7,O=c1c(-c2ccc(O)cc2)coc2c(O)c(O)ccc12,34 µM
8,COc1cc(O)c(C(=O)Cc2ccc(O)cc2)cc1O,38 µM
9,COc1cc(-c2coc3c(O)c(O)ccc3c2=O)ccc1O,33 µM
10,COc1ccc(CC(=O)c2cc(O)c(C)cc2O)cc1,23 µM
11,O=C(Cc1ccc(O)c(O)c1)c1ccc(O)cc1O,20 µM
12,COc1cc2c(cc1O)CC(c1ccc(O)cc1)CO2 (stereo not given),62 µM
13,COc1ccc(-c2coc3c(O)c(OC)ccc3c2=O)cc1,489 µM
14,COc1ccc(C2COc3cc(C)c(O)cc3C2)cc1 (stereo not given),45 µM
15,Oc1ccc(C2COc3c(ccc(O)c3O)C2)cc1 (stereo not given),37 µM
16,COc1cc(-c2coc3cc(O)ccc3c2=O)ccc1O,805 µM
17,COc1ccc(CC(=O)c2ccc(O)c(O)c2O)cc1,38 µM
18,COc1ccc2c(=O)c(-c3ccccc3)coc2c1O,812 µM
19,COc1ccc(C2COc3c(ccc(C)c3O)C2)cc1 (stereo not given),52 µM
20,O=C(Cc1ccccc1)c1cc(O)c(O)cc1O,29 µM
21,O=c1c(-c2ccc(O)cc2)coc2cc(O)c(O)cc12,29 µM
22,COc1ccc(CC(=O)c2cc(O)c(O)cc2O)cc1,32 µM

row,SMILES,ED50
1,COc1ccc(C(=O)Cc2ccc(O)c(O)c2)c(O)c1O,20 µM
2,Cc1ccc2c(c1O)OCC(c1ccc(O)cc1)C2 (stereo not given),111 µM
3,Cc1cc(O)c(C(=O)Cc2ccccc2)cc1O,43 µM
4,O=C(Cc1ccccc1)c1ccc(O)c(O)c1O,32 µM
5,COc1cc2c(cc1O)CC(c1ccccc1)CO2 (stereo not given),49 µM
6,Cc1c(O)cc2c(=O)c(-c3ccc(O)c(O)c3)coc2c1C,85 µM
7,COc1ccc2c(c1O)OCC(c1ccccc1)C2 (stereo not given),168 µM
8,CC(C(=O)c1ccc(O)c(O)c1O)c1ccccc1 (stereo not given),23 µM
9,COc1cc(-c2coc3c(O)c(C)ccc3c2=O)ccc1O,476 µM
10,COc1cc(O)c(C(=O)Cc2ccc(O)c(O)c2)cc1OC,25 µM
11,COc1ccc(CC(=O)c2ccc(O)c(O)c2O)cc1OC,63 µM
12,COc1cc(CC(=O)c2ccc(O)cc2O)ccc1O,180 µM
13,COc1ccc(C(=O)Cc2ccccc2)c(O)c1O,20 µM
14,Oc1ccc2c(c1)OCC(c1ccc(O)c(O)c1)C2 (stereo not given),37 µM
15,COc1cc(O)c(C(=O)Cc2ccc(OC)c(OC)c2)cc1O,39 µM
16,COc1cc(-c2coc3cc(C)c(O)cc3c2=O)ccc1O,232 µM
17,O=C(Cc1ccc(O)cc1)c1cc(O)c(O)cc1O,27 µM
18,COc1cc(-c2coc3cc(OC)c(O)cc3c2=O)ccc1O,404 µM
19,COc1ccc(CC(=O)c2cc(O)c(OC)cc2O)cc1,31 µM
20,Cc1cc2occ(-c3ccc(O)c(O)c3)c(=O)c2cc1O,23 µM
21,COc1ccc(C2COc3c(ccc(O)c3O)C2)cc1 (stereo not given),36 µM
22,COc1ccc(-c2coc3cc(O)c(O)cc3c2=O)cc1,29 µM

row,SMILES,ED50
1,COc1ccc(C2COc3c(ccc(O)c3O)C2)cc1OC (stereo not given),105 µM
2,O=c1c(-c2ccc(O)c(O)c2)coc2c(O)c(O)ccc12,16 µM
3,COc1cc(O)c(C(=O)Cc2ccc(O)c(O)c2)cc1O,19 µM
4,COc1cc(CC(=O)c2ccc(O)c(O)c2O)ccc1O,25 µM
5,COc1cc2c(cc1O)OCC(c1ccccc1)C2 (stereo not given),29 µM
6,COc1cc2occ(-c3ccc(O)c(O)c3)c(=O)c2cc1OC,46 µM
7,COc1cc(-c2coc3cc(O)c(OC)cc3c2=O)ccc1O,655 µM
8,COc1cc(-c2coc3c(O)c(OC)ccc3c2=O)ccc1O,228 µM
9,Cc1cc(O)c(C(=O)Cc2ccc(O)cc2)cc1O,31 µM
10,Cc1c(O)cc(C(=O)Cc2ccc(O)cc2)c(O)c1C,33 µM
11,O=C(Cc1ccc(O)c(O)c1)c1ccc(O)c(O)c1O,12 µM
12,COc1ccc(-c2coc3cc(O)c(OC)cc3c2=O)cc1,663 µM
13,COc1ccc(-c2coc3c(O)c(O)ccc3c2=O)cc1,51 µM
14,COc1cc(-c2coc3cc(OC)c(OC)cc3c2=O)ccc1O,722 µM
15,O=C(Cc1ccc(O)cc1)c1ccc(O)c(O)c1O,22 µM
16,Cc1ccc2c(c1O)OCC(c1ccccc1)C2 (stereo not given),61 µM
17,Cc1c(O)cc(C(=O)Cc2ccccc2)c(O)c1C,42 µM
18,Oc1ccc(C2COc3c(ccc(O)c3O)C2)cc1O (stereo not given),22 µM
19,Oc1ccc2c(c1O)OCC(c1ccccc1)C2 (stereo not given),37 µM
